Experimental data from US20140094465A1, “Compounds as S-Nitrosoglutathione Reductase Inhibitors” (N30 PHARMACEUTICALS, INC., priority 2011, published 2014).

target: T1, S-nitrosoglutathione reductase (GSNOR) (Homo sapiens, UniProt P11766); assay: GSNOR assay (inhibition of GSNOR activity, NADH absorbance at 340 nm); type: biochemical; conditions: GSNOR inhibitor activity, Tables 1-6; read-out: IC50 range
T1 construct: made in house; host or cells: E. coli
How it was run: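 Recombinant GSNOR purified from E. coli, tag removed. Final conditions: 100 mM NaPO4 pH 7.4, 0.240 mM GSNO, 0.300 mM NADH, 0.5 μg/mL enzyme, 1% DMSO; NADH loss followed as 340 nm absorbance change over 3 min at 25 °C. Compounds 100–0.003 μM, triplicate; IC50 by curve analysis.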

T1 sequence (P11766 whole entry): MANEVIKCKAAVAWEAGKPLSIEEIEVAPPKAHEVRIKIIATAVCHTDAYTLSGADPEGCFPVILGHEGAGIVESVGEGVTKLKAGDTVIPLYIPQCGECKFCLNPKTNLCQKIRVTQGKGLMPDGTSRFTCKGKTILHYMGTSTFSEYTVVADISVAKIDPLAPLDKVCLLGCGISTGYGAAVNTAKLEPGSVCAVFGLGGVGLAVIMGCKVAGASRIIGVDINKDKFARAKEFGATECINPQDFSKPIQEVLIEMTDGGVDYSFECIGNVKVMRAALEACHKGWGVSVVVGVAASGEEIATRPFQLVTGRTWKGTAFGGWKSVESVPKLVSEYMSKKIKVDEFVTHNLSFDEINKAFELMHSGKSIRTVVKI

`O=C(O)c1ccc(CC(=O)c2cc(F)c(O)c(F)c2)c(F)c1` [VI-8, 4-(2-(3,5-difluoro-4-hydroxyphenyl)-2-oxoethyl)-3-fluorobenzoic acid] was tested. Which IC50 did it give?
The IC50 was 100 to 1000 nM.

For `O=C(O)c1ccc(CC(=O)c2ccc(O)cc2)c(F)c1` [VI-9, 3-fluoro-4-(2-(4-hydroxyphenyl)-2-oxoethyl)benzoic acid], which IC50 is on record?
Its IC50 is < 100 nM.

For `O=C(O)c1ccc(CC(=O)c2c(F)cc(O)cc2F)c(F)c1` [VI-10, 4-(2-(2,6-difluoro-4-hydroxyphenyl)-2-oxoethyl)-3-fluorobenzoic acid], which IC50 is on record?
The IC50 was 100 to 1000 nM.

With `O=C(O)c1ccc(CC(=O)c2ccc(O)cc2)cc1` [VI-11, 4-(2-(4-hydroxyphenyl)-2-oxoethyl)benzoic acid] as the molecule, how does the IC50 read?
Its IC50 is 100 to 1000 nM.

For `CC(C(=O)c1ccc(O)cc1O)c1ccc(C(=O)O)cc1` (centres unmarked) [VI-12, 4-(1-(2,4-dihydroxyphenyl)-1-oxopropan-2-yl)benzoic acid], which IC50 is on record?
Its IC50 is 1000 to 10000 nM.

With `O=C(O)c1ccc(/C=C/c2ccc(O)cc2O)cc1` [VI-13, (E)-4-(2,4-dihydroxystyryl)benzoic acid] as the molecule, how does the IC50 read?
Its IC50 is 1000 to 10000 nM.

With `O=C(O)c1ccc(NC(=O)c2ccc(O)cc2C(F)(F)F)cc1` [VI-14, 4-(4-hydroxy-2-(trifluoromethyl)benzamido)benzoic acid] as the molecule, how does the IC50 read?
The IC50 was 100 to 1000 nM.

Which IC50 does the source give for `O=C(O)c1ccc(NC(=O)c2ccc(O)cc2F)cc1` [VI-15, 4-(2-fluoro-4-hydroxybenzamido)benzoic acid] here?
The IC50 was 100 to 1000 nM.

For `O=C(O)c1ccc(NC(=O)c2ccc(O)cc2O)cc1` [VI-16, 4-(2,4-dihydroxybenzamido)benzoic acid], which IC50 is on record?
Its IC50 is 1000 to 10000 nM.

Which IC50 does the source give for `O=C(O)c1ccc(/C(=C\C(F)(F)F)C(=O)c2ccc(O)cc2O)cc1` [VI-17, (E)-4-(1-(2,4-dihydroxyphenyl)-4,4,4-trifluoro-1-oxobut-2-en-2-yl)benzoic acid] here?
Its IC50 is < 100 nM.

`O=C(O)c1ccc(CC(=O)c2ccc(O)cc2O)c(F)c1` [VI-18, 4-(2-(2,4-dihydroxyphenyl)-2-oxoethyl)-3-fluorobenzoic acid] was tested. Which IC50 did it give?
The IC50 was 100 to 1000 nM.

With `O=C(O)c1ccc(COc2ccc(O)cc2F)c(F)c1` [VI-19, 3-fluoro-4-((2-fluoro-4-hydroxyphenoxy)methyl)benzoic acid] as the molecule, how does the IC50 read?
Its IC50 is 100 to 1000 nM.

For `O=C(O)c1ccc(CS(=O)(=O)c2ccc(O)c(F)c2)c(F)c1` [VI-20, 3-fluoro-4-(((3-fluoro-4-hydroxyphenyl)sulfonyl)methyl)benzoic acid], which IC50 is on record?
The IC50 was < 100 nM.

With `O=C(O)c1ccc(COc2ccc(O)c(F)c2F)c(F)c1` [VI-21, 4-((2,3-difluoro-4-hydroxyphenoxy)methyl)-3-fluorobenzoic acid] as the molecule, how does the IC50 read?
Its IC50 is < 100 nM.

`O=C(O)c1ccc(COc2cc(F)c(O)cc2F)c(F)c1` [VI-22, 4-((2,5-difluoro-4-hydroxyphenoxy)methyl)-3-fluorobenzoic acid] was tested. Which IC50 did it give?
Its IC50 is 100 to 1000 nM.

How did the IC50 turn out when `O=C(O)c1ccc(COc2ccc(O)c(F)c2)c(F)c1` [VI-23, 3-fluoro-4-((3-fluoro-4-hydroxyphenoxy)methyl)benzoic acid] was run?
Its IC50 is 100 to 1000 nM.

How did the IC50 turn out when `O=C(O)c1ccc(CSc2ccc(O)cc2)c(F)c1` [VI-24, 3-fluoro-4-(((4-hydroxyphenyl)thio)methyl)benzoic acid] was run?
Its IC50 is 100 to 1000 nM.

How did the IC50 turn out when `O=C(O)c1ccc(C[S+]([O-])c2ccc(O)cc2)c(F)c1` (centres unmarked) [VI-25, 3-fluoro-4-(((4-hydroxyphenyl)sulfinyl)methyl)benzoic acid] was run?
Its IC50 is 100 to 1000 nM.

With `O=C(O)c1ccc(CS(=O)(=O)c2ccc(O)cc2)c(F)c1` [VI-26, 3-fluoro-4-(((4-hydroxyphenyl)sulfonyl)methyl)benzoic acid] as the molecule, how does the IC50 read?
Its IC50 is < 100 nM.

With `O=C(O)c1ccc(CC(=O)c2ccc(O)c(F)c2O)c(F)c1` [VI-27, 3-fluoro-4-(2-(3-fluoro-2,4-dihydroxyphenyl)-2-oxoethyl)benzoic acid] as the molecule, how does the IC50 read?
Its IC50 is 100 to 1000 nM.

Which IC50 does the source give for `O=C(O)c1ccc(CCC(=O)c2ccc(O)c(F)c2F)cc1` [VI-29, 4-(3-(2,3-difluoro-4-hydroxyphenyl)-3-oxopropyl)benzoic acid] here?
Its IC50 is 1000 to 10000 nM.

With `O=C(O)c1ccc(CCC(=O)c2ccc(O)cc2)cc1` [VI-30, 4-(3-(4-hydroxyphenyl)-3-oxopropyl)benzoic acid] as the molecule, how does the IC50 read?
Its IC50 is 1000 to 10000 nM.

`O=C(O)c1ccc(NCc2ccc(O)c(F)c2)c(F)c1` [VI-31, 3-fluoro-4-((3-fluoro-4-hydroxybenzyl)amino)benzoic acid] was tested. Which IC50 did it give?
Its IC50 is 1000 to 10000 nM.

With `O=C(O)c1ccc(NCc2ccc(O)c(F)c2F)c(F)c1` [VI-32, 4-((2,3-difluoro-4-hydroxybenzyl)amino)-3-fluorobenzoic acid] as the molecule, how does the IC50 read?
The IC50 was 100 to 1000 nM.

Which IC50 does the source give for `O=C(O)c1ccc(NCc2ccc(O)cc2F)c(F)c1` [VI-33, 3-fluoro-4-((2-fluoro-4-hydroxybenzyl)amino)benzoic acid] here?
Its IC50 is 1000 to 10000 nM.

same assay, conditions: Table 7; GSNOR inhibition, IC50 range class a/b/c; read-out: IC50

Which IC50 does the source give for `O=C(O)c1ccc(-c2nc(-c3ccc(O)cc3)cs2)cc1` [VII-1, 4-(4-(4-hydroxyphenyl)thiazol-2-yl)benzoic acid] here?
The IC50 was 1000 to 10000 nM.

How did the IC50 turn out when `O=C(O)c1ccc(-c2csc(-c3ccc(O)cc3)n2)cc1` [VII-2, 4-(2-(4-hydroxyphenyl)thiazol-4-yl)benzoic acid] was run?
The IC50 was 100 to 1000 nM.

With `O=C(O)c1ccc(-c2csc(-c3ccc(O)c(F)c3)n2)s1` [VII-3, 5-(2-(3-fluoro-4-hydroxyphenyl)thiazol-4-yl)thiophene-2-carboxylic acid] as the molecule, how does the IC50 read?
The IC50 was < 100 nM.

Which IC50 does the source give for `O=C(O)c1ccc(-c2ccc(-c3ccc(O)cc3)s2)cc1` [VII-4, 4-(5-(4-hydroxyphenyl)thiophen-2-yl)benzoic acid] here?
The IC50 was 100 to 1000 nM.

Which IC50 does the source give for `O=C(O)c1cccc(-c2csc(-c3ccc(O)c(F)c3)n2)c1` [VII-5, 3-(2-(3-fluoro-4-hydroxyphenyl)thiazol-4-yl)benzoic acid] here?
Its IC50 is 100 to 1000 nM.

Which IC50 does the source give for `O=C(O)c1ccc(-c2csc(-c3ccc(O)c(F)c3)n2)cc1` [VII-6, 4-(2-(3-fluoro-4-hydroxyphenyl)thiazol-4-yl)benzoic acid] here?
Its IC50 is 100 to 1000 nM.

Which IC50 does the source give for `O=C(O)c1ccc(-c2ccc(-c3ccc(O)c(F)c3)s2)cc1` [VII-7, 4-(5-(3-fluoro-4-hydroxyphenyl)thiophen-2-yl)benzoic acid] here?
Its IC50 is 100 to 1000 nM.

Which IC50 does the source give for `O=C(O)c1ccc(-c2ccc(-c3ccc(O)cc3F)s2)cc1` [VII-8, 4-(5-(2-fluoro-4-hydroxyphenyl)thiophen-2-yl)benzoic acid] here?
The IC50 was 100 to 1000 nM.

`O=C(O)c1ccc(-c2csc(-c3ccc(O)cc3)n2)s1` [VII-9, 5-(2-(4-hydroxyphenyl)thiazol-4-yl)thiophene-2-carboxylic acid] was tested. Which IC50 did it give?
Its IC50 is < 100 nM.

How did the IC50 turn out when `O=C(O)c1ccc(-c2cnc(-c3ccc(O)c(F)c3)s2)s1` [VII-10, 5-(2-(3-fluoro-4-hydroxyphenyl)thiazol-5-yl)thiophene-2-carboxylic acid] was run?
The IC50 was < 100 nM.

Which IC50 does the source give for `O=C(O)c1ccc(-c2ccc(-c3ccc(O)cc3)cc2)cc1` [VII-11, 4″-hydroxy-[1,1′:4′,1″-terphenyl]-4-carboxylic acid] here?
The IC50 was 100 to 1000 nM.

How did the IC50 turn out when `O=C(O)c1ccc(-c2ccc(-c3ccc(O)cc3)s2)s1` [VII-12, 5′-(4-hydroxyphenyl)-2,2′-bithiophene-5-carboxylic acid] was run?
Its IC50 is 100 to 1000 nM.

How did the IC50 turn out when `O=C(O)c1ccc(-c2ncc(-c3ccc(O)cc3)s2)s1` [VII-13, 5-(5-(4-hydroxyphenyl)thiazol-2-yl)thiophene-2-carboxylic acid] was run?
The IC50 was 100 to 1000 nM.

`O=C(O)c1ccc(-c2ncc(-c3ccc(O)cc3)cn2)cc1` [VII-14, 4-(5-(4-hydroxyphenyl)pyrimidin-2-yl)benzoic acid] was tested. Which IC50 did it give?
The IC50 was 1000 to 10000 nM.

For `O=C(O)c1ccc(-c2cnc(-c3ccc(O)cc3)nc2)cc1` [VII-15, 4-(2-(4-hydroxyphenyl)pyrimidin-5-yl)benzoic acid], which IC50 is on record?
The IC50 was 1000 to 10000 nM.

For `O=C(O)c1ccc(-c2cnc(-c3ccc(O)cc3)s2)s1` [VII-16, 5-(2-(4-hydroxyphenyl)thiazol-5-yl)thiophene-2-carboxylic acid], which IC50 is on record?
Its IC50 is < 100 nM.

`O=C(O)c1ccc(-c2ccc(-c3ccc(O)c(F)c3)s2)s1` [VII-17, 5′-(3-fluoro-4-hydroxyphenyl)-[2,2′-bithiophene]-5-carboxylic acid] was tested. Which IC50 did it give?
The IC50 was < 100 nM.

`O=C(O)c1cccc(-c2csc(-c3ccc(O)cc3)n2)c1` [VII-18, 3-(2-(4-hydroxyphenyl)thiazol-4-yl)benzoic acid] was tested. Which IC50 did it give?
The IC50 was 1000 to 10000 nM.

Which IC50 does the source give for `O=C(O)c1ccc(-c2cc(-c3ccc(O)cc3)cs2)s1` [VII-19, 4′-(4-hydroxyphenyl)-[2,2′-bithiophene]-5-carboxylic acid] here?
The IC50 was 100 to 1000 nM.

`O=C(O)c1ccc(-c2csc(-c3ccc(O)cc3)c2)s1` [VII-20, 5′-(4-hydroxyphenyl)-[2,3′-bithiophene]-5-carboxylic acid] was tested. Which IC50 did it give?
The IC50 was 100 to 1000 nM.

With `O=C(O)c1ccc(-c2ccc(-c3ccc(O)cc3)cc2)s1` [VII-21, 5-(4′-hydroxy-[1,1′-biphenyl]-4-yl)thiophene-2-carboxylic acid] as the molecule, how does the IC50 read?
Its IC50 is 100 to 1000 nM.

`O=C(O)c1ccc(-c2ccc(-c3ccc(O)cc3)[nH]2)cc1` [VII-23, 4-(5-(4-hydroxyphenyl)-1H-pyrrol-2-yl)benzoic acid] was tested. Which IC50 did it give?
Its IC50 is 1000 to 10000 nM.

For `Cn1c(-c2ccc(O)cc2)ccc1-c1ccc(C(=O)O)s1` [VII-24, 5-(5-(4-hydroxyphenyl)-1-methyl-1H-pyrrol-2-yl)thiophene-2-carboxylic acid], which IC50 is on record?
The IC50 was 100 to 1000 nM.

For `COCCn1c(-c2ccc(O)cc2)ccc1-c1ccc(C(=O)O)s1` [VII-25, 5-(5-(4-hydroxyphenyl)-1-(2-methoxyethyl)-1H-pyrrol-2-yl)thiophene-2-carboxylic acid], which IC50 is on record?
Its IC50 is < 100 nM.

For `CCCCn1c(-c2ccc(O)cc2)ccc1-c1ccc(C(=O)O)s1` [VII-26, 5-(1-butyl-5-(4-hydroxyphenyl)-1H-pyrrol-2-yl)thiophene-2-carboxylic acid], which IC50 is on record?
Its IC50 is 100 to 1000 nM.

For `CC(C)CCn1c(-c2ccc(O)cc2)ccc1-c1ccc(C(=O)O)s1` [VII-27, 5-(5-(4-hydroxyphenyl)-1-isopentyl-1H-pyrrol-2-yl)thiophene-2-carboxylic acid], which IC50 is on record?
The IC50 was < 100 nM.

`CC(C)CCn1c(-c2ccc(O)cc2)ccc1-c1ccc(C(=O)O)cc1` [VII-28, 4-(5-(4-hydroxyphenyl)-1-isopentyl-1H-pyrrol-2-yl)benzoic acid] was tested. Which IC50 did it give?
Its IC50 is < 100 nM.

For `CC(C)Cn1c(-c2ccc(O)cc2)ccc1-c1ccc(C(=O)O)cc1` [VII-29, 4-(5-(4-hydroxyphenyl)-1-isobutyl-1H-pyrrol-2-yl)benzoic acid], which IC50 is on record?
The IC50 was < 100 nM.
